This note sets out measurements from ChEMBL document CHEMBL1770109, “SAR studies of pyridazinone derivatives as novel glucan synthase inhibitors” (Bioorg Med Chem Lett, 2011).

In one data set the test system is Nakaseomyces glabratus. Put plainly: Antifungal activity against Candida glabrata C624. The class given is functional. Particulars: read-out: MIC100.
Another data set deals with Beta-1,3-glucan synthase (Candida albicans, UniProt O13428). Put plainly: Inhibition of Candida albicans BWP17 1,3-beta-glucan synthase.
Another data set concerns Candida albicans. Nature of the data set: Antifungal activity against Candida albicans C693. Type of data set: functional. Conditions: for MIC: read-out: MIC100.
Data set [1] is described as follows: AUC (0 to 6 hrs) in rat at 10 mg/kg, po. The class given is ADME, organism-based. On the set-up: time < 6 hr, dose 10 mg/kg, route oral. Conditions: plasma.

pIC50: −log10 of the molar value. ≈ marks a conversion by molar mass, not a printed value. Bounds are passed on as bounds.

Sequence of Beta-1,3-glucan synthase (O13428 whole entry): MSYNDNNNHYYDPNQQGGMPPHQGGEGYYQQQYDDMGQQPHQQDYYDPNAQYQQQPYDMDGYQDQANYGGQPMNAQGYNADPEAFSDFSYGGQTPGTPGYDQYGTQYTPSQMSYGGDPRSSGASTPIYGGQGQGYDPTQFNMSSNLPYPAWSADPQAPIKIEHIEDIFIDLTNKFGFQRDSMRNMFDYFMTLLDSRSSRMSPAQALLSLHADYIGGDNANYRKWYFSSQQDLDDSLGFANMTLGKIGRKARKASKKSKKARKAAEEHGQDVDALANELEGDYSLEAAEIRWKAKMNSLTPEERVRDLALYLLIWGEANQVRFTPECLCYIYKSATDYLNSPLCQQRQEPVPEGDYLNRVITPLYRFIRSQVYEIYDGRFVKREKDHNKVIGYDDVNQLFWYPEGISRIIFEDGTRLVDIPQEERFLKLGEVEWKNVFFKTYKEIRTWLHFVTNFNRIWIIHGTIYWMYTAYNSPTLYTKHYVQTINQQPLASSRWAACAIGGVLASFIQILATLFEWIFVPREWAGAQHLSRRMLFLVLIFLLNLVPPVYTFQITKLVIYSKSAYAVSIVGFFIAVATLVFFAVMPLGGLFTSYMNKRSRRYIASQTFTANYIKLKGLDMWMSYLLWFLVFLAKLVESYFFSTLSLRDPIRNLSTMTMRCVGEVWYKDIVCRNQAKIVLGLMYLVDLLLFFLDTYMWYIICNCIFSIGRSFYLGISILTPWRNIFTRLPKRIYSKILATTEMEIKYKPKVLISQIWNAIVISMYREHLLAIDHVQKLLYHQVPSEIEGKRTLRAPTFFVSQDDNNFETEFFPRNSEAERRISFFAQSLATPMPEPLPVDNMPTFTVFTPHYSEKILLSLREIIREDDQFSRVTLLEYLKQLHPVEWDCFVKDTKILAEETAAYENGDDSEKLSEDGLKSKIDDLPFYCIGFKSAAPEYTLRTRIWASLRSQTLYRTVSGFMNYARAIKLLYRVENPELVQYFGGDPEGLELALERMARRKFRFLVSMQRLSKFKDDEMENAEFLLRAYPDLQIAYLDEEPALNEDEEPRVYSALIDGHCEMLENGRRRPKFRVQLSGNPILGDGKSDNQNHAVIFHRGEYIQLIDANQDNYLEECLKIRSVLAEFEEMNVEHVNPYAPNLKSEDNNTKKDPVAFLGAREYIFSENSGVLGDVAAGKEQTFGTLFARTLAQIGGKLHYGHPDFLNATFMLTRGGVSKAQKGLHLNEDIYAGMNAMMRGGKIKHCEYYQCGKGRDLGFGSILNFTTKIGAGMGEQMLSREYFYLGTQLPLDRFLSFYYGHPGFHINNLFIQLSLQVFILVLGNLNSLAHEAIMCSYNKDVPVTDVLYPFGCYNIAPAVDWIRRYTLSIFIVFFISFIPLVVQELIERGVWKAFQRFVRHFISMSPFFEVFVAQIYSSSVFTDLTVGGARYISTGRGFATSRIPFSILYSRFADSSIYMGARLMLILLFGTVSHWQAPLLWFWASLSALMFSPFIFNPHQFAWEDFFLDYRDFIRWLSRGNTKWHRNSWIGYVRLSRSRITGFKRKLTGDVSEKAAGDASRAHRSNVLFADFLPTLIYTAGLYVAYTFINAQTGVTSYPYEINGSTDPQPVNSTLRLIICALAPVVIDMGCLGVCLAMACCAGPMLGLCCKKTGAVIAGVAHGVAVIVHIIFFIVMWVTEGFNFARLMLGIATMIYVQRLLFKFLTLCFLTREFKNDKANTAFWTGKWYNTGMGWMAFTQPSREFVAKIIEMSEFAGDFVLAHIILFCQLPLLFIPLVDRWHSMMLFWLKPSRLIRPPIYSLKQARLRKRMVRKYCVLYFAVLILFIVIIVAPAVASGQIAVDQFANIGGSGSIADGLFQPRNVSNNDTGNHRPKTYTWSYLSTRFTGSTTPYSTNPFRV

As a reminder, the pIC50 is the IC50 on a negative log10 scale, so that one unit is a factor of ten. Low readings indicate a high IC50, high ones a low IC50. As for `CCOCCOc1c(N2CCN(S(=O)(=O)Cc3ccccc3)CC2)cnn(-c2ccccc2)c1=O`, the results for the MIC with Nakaseomyces glabratus and with Candida albicans were 0.1 µg/mL (≈ 0.201 µM) and 3.13 µg/mL (≈ 6.28 µM), respectively. This compound had a pIC50 against Beta-1,3-glucan synthase of 5.74.
As for `CCOCCOc1cc(-c2ccccc2)nnc1N1CCN(S(=O)(=O)Cc2ccccc2)CC1`, the MIC with Nakaseomyces glabratus and in the data set with Candida albicans was > 25 µg/mL throughout. Further, the negative logarithm of the IC50 (pIC50) against Beta-1,3-glucan synthase is 4.12.
In the case of `CCOCCOc1c(N2CCN(S(=O)(=O)Cc3ccccc3)CC2)c(C)nn(-c2ccccc2)c1=O`, the results for the MIC in the data set on Nakaseomyces glabratus and with Candida albicans were 25 µg/mL (≈ 48.8 µM) and > 50 µg/mL, respectively. This compound gave a negative-log IC50 (pIC50) against Beta-1,3-glucan synthase of 3.86.
Consider `CCOCCOc1nn(-c2ccccc2)c(=O)c(OCCOCC)c1N1CCN(S(=O)(=O)Cc2ccccc2)CC1`, for which the MIC with Nakaseomyces glabratus was 6.25 µg/mL (≈ 10.7 µM); with Candida albicans it was > 50 µg/mL. In addition, on Beta-1,3-glucan synthase, the pIC50 is 5.15.
On the same counts, the results for `CCOCCOc1cc(-c2ccccc2)ccc1N1CCN(S(=O)(=O)Cc2ccccc2)CC1` are > 50 µg/mL, > 50 µg/mL and 3.54.
One may read the MIC50 as an inhibitory concentration at the 50% level, which refers to growth in some studies and to a panel of isolates in others. Higher therefore signals lower susceptibility. As to `CCCCCCc1c(N2CCN(S(=O)(=O)Cc3ccccc3)CC2)ncn(-c2cccc(Cl)c2)c1=O`, the pIC50 against Beta-1,3-glucan synthase was 5.61. For the same compound, in the data set on Candida albicans, the MIC50 was determined as 9 µg/mL (≈ 17 µM) and the MIC is > 25 µg/mL.
Turning to `O=c1c(-c2ccc(F)cc2)c(N2CCN(S(=O)(=O)Cc3ccccc3)CC2)cnn1-c1ccccc1`, the MIC in the data set with Nakaseomyces glabratus was 0.05 µg/mL (≈ 0.0991 µM); with Candida albicans, 6.25 µg/mL (≈ 12.4 µM).
On to `O=c1c(-c2ccc(F)cc2)c(N2CCN(S(=O)(=O)Cc3ccccc3)CC2)ccn1-c1ccccc1`, for which the figures for the MIC in the data set with Nakaseomyces glabratus and with Candida albicans were 0.78 µg/mL (≈ 1.55 µM) and > 50 µg/mL, respectively. For the same compound, on Beta-1,3-glucan synthase, the negative-log IC50 (pIC50) was 5.32.
In the case of `CC(C)(C)S(=O)(=O)N1CCN(c2cnn(-c3cccc(Cl)c3)c(=O)c2OC2CCCC2)CC1`, the MIC with Nakaseomyces glabratus stood at 0.1 µg/mL (≈ 0.202 µM). On Beta-1,3-glucan synthase, this compound gave a negative-log IC50 (pIC50) of 6.08. For the same compound, the MIC50 with Candida albicans was 0.78 µg/mL (≈ 1.58 µM).
Consider `O=c1c(OC2CCCC2)c(N2CCN(S(=O)(=O)C3CCCC3)CC2)cnn1-c1cccc(Cl)c1`, for which the MIC in the data set with Nakaseomyces glabratus came out at 0.1 µg/mL (≈ 0.197 µM); in the data set with Candida albicans it was 3.13 µg/mL (≈ 6.17 µM). For the same compound, the pIC50 against Beta-1,3-glucan synthase was 5.91.
Take `COCCS(=O)(=O)N1CCN(c2cnn(-c3cccc(Cl)c3)c(=O)c2OC2CCCC2)CC1`: the MIC in the data set with Nakaseomyces glabratus was 0.2 µg/mL (≈ 0.402 µM); in the data set with Candida albicans, 3.13 µg/mL (≈ 6.3 µM). In addition, the negative-log IC50 (pIC50) against Beta-1,3-glucan synthase is 6.06.
For `O=C(O)CCS(=O)(=O)N1CCN(c2cnn(-c3cccc(Cl)c3)c(=O)c2OC2CCCC2)CC1` the same measures were > 50 µg/mL, > 50 µg/mL and 3.67.
On to `O=c1c(OC2CCCC2)c(N2CCN(S(=O)(=O)c3ccsc3)CC2)cnn1-c1cccc(Cl)c1`, for which the MIC was determined as 0.05 µg/mL (≈ 0.096 µM) with Nakaseomyces glabratus and 0.78 µg/mL (≈ 1.5 µM) in the data set with Candida albicans. The pIC50 on Beta-1,3-glucan synthase is 6.09.
For `O=c1c(OC2CCCC2)c(N2CCN(S(=O)(=O)c3ccccc3)CC2)cnn1-c1cccc(Cl)c1`, the MIC in the data set with Nakaseomyces glabratus was determined as 0.3 µg/mL (≈ 0.582 µM); in the data set with Candida albicans it was 3.1 µg/mL (≈ 6.02 µM).
On to `O=c1c(OC2CCCC2)c(N2CCN(S(=O)(=O)c3ccc4ccccc4c3)CC2)cnn1-c1cccc(Cl)c1`, for which the MIC in the data set on Nakaseomyces glabratus was 1.04 µg/mL (≈ 1.84 µM); in the data set with Candida albicans, 33.4 µg/mL (≈ 59.1 µM). The pIC50 against Beta-1,3-glucan synthase is 6.88.
In the case of `Cn1ccc2ccc(S(=O)(=O)N3CCN(c4cnn(-c5cccc(Cl)c5)c(=O)c4OC4CCCC4)CC3)cc21`, in the data set on Nakaseomyces glabratus, the MIC is 0.2 µg/mL (≈ 0.352 µM). On Beta-1,3-glucan synthase, this compound gave a pIC50 of 6.55. In the data set on Candida albicans, this compound gave an MIC50 of 0.78 µg/mL (≈ 1.37 µM).
Turning to `O=c1c(OC2CCCC2)c(N2CCN(S(=O)(=O)Cc3ccccc3)CC2)cnn1-c1cccc(Cl)c1`, the results for the MIC with Nakaseomyces glabratus and in the data set on Candida albicans were 0.02 µg/mL (≈ 0.0378 µM) and 0.39 µg/mL (≈ 0.737 µM), respectively. At Beta-1,3-glucan synthase, this compound gave a pIC50 of 6.42.
For the compound `O=c1c(OC2CCCC2)c(N2CCN(S(=O)(=O)Cc3ccsc3)CC2)cnn1-c1cccc(Cl)c1`, the MIC is 0.02 µg/mL (≈ 0.0374 µM) in the data set with Nakaseomyces glabratus and 2.1 µg/mL (≈ 3.92 µM) in the data set on Candida albicans. At Beta-1,3-glucan synthase, this compound showed a pIC50 of 6.39.
Consider `O=c1c(OC2CCCC2)c(N2CCN(S(=O)(=O)CCc3ccccc3)CC2)cnn1-c1cccc(Cl)c1`, for which the figures for the MIC in the data set on Nakaseomyces glabratus and with Candida albicans were 0.08 µg/mL (≈ 0.147 µM) and 5 µg/mL (≈ 9.21 µM), respectively. The compound also showed a negative logarithm of the IC50 (pIC50) on Beta-1,3-glucan synthase of 5.83.
On to `O=c1c(OC2CCCC2)c(N2CCN(S(=O)(=O)C3Cc4ccccc4C3)CC2)cnn1-c1cccc(Cl)c1`, for which the MIC in the data set on Nakaseomyces glabratus was 0.1 µg/mL (≈ 0.18 µM); with Candida albicans, 1.56 µg/mL (≈ 2.81 µM). On Beta-1,3-glucan synthase, this compound showed a negative-log IC50 (pIC50) of 6.28.
On the same counts, the results for `O=c1c(OC2CCCC2)c(N2CCN(S(=O)(=O)Cc3noc4ccccc34)CC2)cnn1-c1cccc(Cl)c1` are 0.05 µg/mL (≈ 0.0877 µM), 0.78 µg/mL (≈ 1.37 µM) and 6.85.
In the case of `O=c1c(OC2CCCC2)c(N2CCN(S(=O)(=O)CCCc3ccccc3)CC2)cnn1-c1cccc(Cl)c1`, the results for the MIC in the data set with Nakaseomyces glabratus and in the data set with Candida albicans were 3.13 µg/mL (≈ 5.62 µM) and > 50 µg/mL, respectively. On Beta-1,3-glucan synthase, this compound had a pIC50 of 4.38.
Take `O=c1c(OC2CCCC2)c(N2CCN(S(=O)(=O)Cc3ccc(F)cc3)CC2)cnn1-c1cccc(Cl)c1`: the MIC amounted to 0.05 µg/mL (≈ 0.0914 µM) with Nakaseomyces glabratus and 1.56 µg/mL (≈ 2.85 µM) in the data set on Candida albicans.
On the same counts, the results for `Cc1ccc(CS(=O)(=O)N2CCN(c3cnn(-c4cccc(Cl)c4)c(=O)c3OC3CCCC3)CC2)cc1` are 0.08 µg/mL (≈ 0.147 µM) and 0.31 µg/mL (≈ 0.571 µM).
As for `O=c1c(OC2CCCC2)c(N2CCN(S(=O)(=O)Cc3cccc(C(F)(F)F)c3)CC2)cnn1-c1cccc(Cl)c1`, the MIC with Nakaseomyces glabratus is 0.78 µg/mL (≈ 1.31 µM); in the data set with Candida albicans, > 50 µg/mL.
For the compound `N#Cc1ccc(CS(=O)(=O)N2CCN(c3cnn(-c4cccc(Cl)c4)c(=O)c3OC3CCCC3)CC2)cc1`, the MIC came out at 0.02 µg/mL (≈ 0.0361 µM) in the data set with Nakaseomyces glabratus and 0.13 µg/mL (≈ 0.235 µM) with Candida albicans.
Consider `CCOC(=O)c1ccc(CS(=O)(=O)N2CCN(c3cnn(-c4cccc(Cl)c4)c(=O)c3OC3CCCC3)CC2)cc1`, for which the MIC was 0.78 µg/mL (≈ 1.3 µM) in the data set with Nakaseomyces glabratus and 6.25 µg/mL (≈ 10.4 µM) in the data set on Candida albicans.
For the compound `O=c1c(OC2CCCC2)c(N2CCN(S(=O)(=O)Cc3cccc(B(O)O)c3)CC2)cnn1-c1cccc(Cl)c1`, the results for the MIC in the data set on Nakaseomyces glabratus and in the data set on Candida albicans were 0.42 µg/mL (≈ 0.733 µM) and 13.4 µg/mL (≈ 23.4 µM), respectively.
One may read the AUC(0-t) as exposure summed from dosing to a finite time, without extrapolation to infinity. A higher AUC(0-t) goes with more exposure. Turning to `O=C(O)c1ccc(CS(=O)(=O)N2CCN(c3cnn(-c4cccc(Cl)c4)c(=O)c3OC3CCCC3)CC2)cc1`, the exposure AUC(0-t) at 6 h in data set [1] was determined as 130 ng·h/mL. Besides, the MIC in the data set on Nakaseomyces glabratus is 25 µg/mL (≈ 43.6 µM); in the data set on Candida albicans it was > 50 µg/mL.
As for `O=c1c(OC2CCCC2)c(N2CCN(S(=O)(=O)Cc3ccc([N+](=O)[O-])cc3)CC2)cnn1-c1cccc(Cl)c1`, the MIC was determined as 0.05 µg/mL (≈ 0.0871 µM) with Nakaseomyces glabratus and 0.78 µg/mL (≈ 1.36 µM) with Candida albicans.
For the compound `O=c1c(OC2CCCC2)c(N2CCN(S(=O)(=O)Cc3ccncc3)CC2)cnn1-c1cccc(Cl)c1`, in data set [1], the exposure AUC(0-t) at 6 h stood at 60 ng·h/mL. For the same compound, the results for the MIC in the data set on Nakaseomyces glabratus and with Candida albicans were < 0.02 µg/mL and 0.2 µg/mL (≈ 0.377 µM), respectively.
Turning to `Nc1ccccc1CS(=O)(=O)N1CCN(c2cnn(-c3cccc(Cl)c3)c(=O)c2OC2CCCC2)CC1`, in data set [1], the exposure AUC(0-t) at 6 h was 290 ng·h/mL. Besides, the MIC with Nakaseomyces glabratus was determined as 0.03 µg/mL (≈ 0.0551 µM); in the data set on Candida albicans, 0.35 µg/mL (≈ 0.643 µM).
For the compound `Nc1cccc(CS(=O)(=O)N2CCN(c3cnn(-c4cccc(Cl)c4)c(=O)c3OC3CCCC3)CC2)c1`, in data set [1], the AUC(0-t) at 6 h turned out to be 50 ng·h/mL. Besides, the values for the MIC with Nakaseomyces glabratus and in the data set with Candida albicans were 0.39 µg/mL (≈ 0.717 µM) and 3.13 µg/mL (≈ 5.75 µM), respectively.
On the same counts, the results for `Nc1ccc(CS(=O)(=O)N2CCN(c3cnn(-c4cccc(Cl)c4)c(=O)c3OC3CCCC3)CC2)cc1` are 80 ng·h/mL, 0.2 µg/mL (≈ 0.368 µM) and 0.78 µg/mL (≈ 1.43 µM).
